Test results reported in patent US20080221021A1, “Novel Corticotropin-Releasing Factor Receptor 1 (Crfr1) Agonist” (Max-Planck-Gesellschaft Zur Forderung Der, priority 2004, published 2008).
“Also recorded” adds a separate entry of the source. Where no end group is shown, it is not given here.

Assays:
Type in all cases: in vivo, mouse
C57BL/6J mice [1] = experiment: Elevated plus-maze test, i.c.v. injection; conditions: for anxiety-like behavior (time spent in open arms, number of open arm entries) / locomotor activity (total distance crossed): 30 min before EPM, vs aCSF
Description: (§1) Nine-week old male C57BL/6J (Centre D'Elevage Janvier, Sultzfeld, France) were individually housed in macrolon cages according to the recommendations of the Society for Laboratory Animal Science (Germany). All experiments were carried out in accordance with the European Council Directive (86/609/EEC) with the permission of the Animal Protection Law enforced by the District Government of Braunschweig, State of Lower Saxony, Germany, which is in full agreement with the APA ethical guidelines. All efforts were made to minimize animal suffering. The number of mice per group was 9-11.
(§2) All peptides were dissolved in aCSF except for the CRFR2-selective antagonist antisauvagine-30 (aSvg-30) (20) that was initially dissolved in 10 mM aqueous acetic acid and diluted with the same volume of two-fold concentrated aCSF. The final pH of the peptide solutions was 7.4. The exact peptide concentration of the injection solutions was determined by amino acid analysis with a Beckman HPLC analyzer system 6300. Total hydrolysis of the peptides was carried out in the presence of 1 nmol norvaline as internal standard with 6 M HCl for 24 h at 100° C.
The elevated plus-maze (EPM) behavior of C57BL/6J mice cannulated in the lateral ventricles or lateral intermediate septal area (23) was investigated 30 min after injection of the CRFR1 agonist under investigation for 5 min in the EPM test (24). The CRFR2-selective antagonist aSvg-30 in aCSF or aCSF alone were injected 15 min before agonist administration. The behavior of the mice was recorded by a video camera connected to a PC and analyzed by the Technical & Scientific Equipment software VIDEOMOT 2. The time spent, distance crossed, and number of entries in the open arms, closed arms, and center were recorded. The cannular placement was confirmed for each mouse by histological examination of the brains after methylene blue injection (23). The behavioral data are expressed as mean±SEM, and were analyzed using a two- and one-way ANOVA, with Bonferroni/Dunn test applied, post hoc, for individual between-group comparisons at the p<0.05 level of significance. Shift of preference from the open to the closed arms was interpreted as an increase of anxiety-like behavior. Locomotor activity was determined with this test by the distance travelled.

C57BL/6J mice [2] = experiment: Elevated plus-maze test, intraseptal (i.s.) injection; conditions: 100 ng into lateral septum (i.s.), 30 min before EPM, vs aCSF
Description: as §1
as §2, with “Total hydrolysis of the peptides was carried out in the presence of 1 nmol norvaline as internal standard with 6 M HCl for 24 h at 100° C.” left out
The elevated plus-maze (EPM) behavior of C57BL/6J mice cannulated in the lateral ventricles or lateral intermediate septal area (23) was investigated 30 min after injection of the CRFR1 agonist under investigation for 5 min in the EPM test (24). […] The behavior of the mice was recorded by a video camera connected to a PC and analyzed by the Technical & Scientific Equipment software VIDEOMOT 2. […]

C57BL/6J mice [3] = experiment: Forced swim test, i.c.v. injection
Description: as §1, §2
For the forced swim test (FST), C57BL/6J mice cannulated in the lateral ventricles were subjected to swim sessions in individual glass cylinders (height 39 cm, diameter 21.7 cm) containing water, 15-cm deep, at 23-25° C. On day 1, all animals were placed in the cylinder for a preswim session of 15 min. On the test day 24 h later (day 2), the mice were subjected to a testswim session for 6 min. The water was changed between subjects. All testswim sessions were recorded by a video camera positioned directly above the cylinder. A component observer blind to treatment scored the videotapes. The behavioral measure scored was the duration of immobility, defined as time spent still or only using righting movements to keep the head over water. An increase in immobility time was interpreted as an increase of depression-like behavior. In all behavioral experiments, the cannula placement was confirmed for each mouse by histological examination of the brains after methylene blue injection (23). The behavioral data are expressed as mean±SEM, and were analysed using a two- and one-way ANOVA, with Bonferri/Dunn test applied, post hoc, for individual between-group comparisons at the p<0.05 level of significance.

[4] = i.c.v., two-way ANOVA over doses, EPM

Substance: [Glu^21, Ala^40] [Svg^1-12]x[h/rCRF^14-30]x[Svg^30-40] (XGPPISIDLSLELLREVLEMERAEQLAQQAANNRLLLDTA; X not resolved here; ends and bridges not checked; also: Glx at position 1 not given here (Gln/Glu/pGlu)) [cortagine]
- anxiety-like behavior (time spent in open arms, number of open arm entries) (C57BL/6J mice [1]; 10 ng i.c.v.): ineffective
- locomotor activity (total distance crossed) (C57BL/6J mice [1]; 10 ng i.c.v.): ineffective
- anxiety-like behavior (time spent in open arms, number of open arm entries) (C57BL/6J mice [1]; 30 ng i.c.v.): significantly decreased time spent in open arms; also recorded: increased significantly anxiety-like behavior; also recorded: increased anxiety levels
- locomotor activity (total distance crossed) (C57BL/6J mice [1]; 30 ng i.c.v.): decreased significantly; also recorded: reduced locomotor activity
- anxiety-like behavior (time spent in open arms, number of open arm entries) (C57BL/6J mice [1]; 100 ng i.c.v.): increased significantly anxiety-like behavior; also recorded: increased anxiety levels
- locomotor activity (total distance crossed) (C57BL/6J mice [1]; 100 ng i.c.v.): decreased significantly; also recorded: reduced locomotor activity
- anxiety-like behavior (time spent in open arms, number of open arm entries) (C57BL/6J mice [1]; 300 ng i.c.v.): increased significantly anxiety-like behavior; also recorded: increased anxiety levels
- locomotor activity (total distance crossed) (C57BL/6J mice [1]; 300 ng i.c.v.): decreased significantly; also recorded: reduced locomotor activity
- ability to modulate locomotor activity, cortagine vs oCRF (C57BL/6J mice [1]; [4]): did not differ
- anxiogenic potency compared to oCRF (C57BL/6J mice [1]; [4]): significantly higher anxiogenic potency; also recorded: doses lower than required of OCRF
- anxiety-like behavior (time spent in open arms, number of open arm entries) (C57BL/6J mice [2]): not
- immobility time during the testswim session 24 h later (day 2) (C57BL/6J mice [3]; 300 ng i.c.v. 30 min before preswim (day 1)): significantly reduced immobility time in comparison to oCRF-injected mice; also recorded: decrease of the immobility lime; also recorded: significant decrease
- immobility time during the preswim session (C57BL/6J mice [3]; 300 ng i.c.v. 30 min before preswim (day 1), vs aCSF): significantly decreased the immobility time
- immobility time during the testswim session (C57BL/6J mice [3]; 300 ng i.c.v. 30 min before testswim (day 2), vs aCSF): significantly decreased the immobility time
- floating time in the FST (C57BL/6J mice [3]; mice): reduced significantly
